Experimental data taken from the NIST ThermoML archive (doi:10.1021/acs.jced.5b00527).
Numbers after ± are expanded uncertainties.

How the values were obtained:
[1] = refractive index (Na D-line) (dimensionless); settings: 298.15 K; 101.33 kPa; Liquid; Standard Abbe refractometry
[2] = 298.15 K; 101.33 kPa; Liquid; Vibrating tube method

SMILES	refractive index [1]	mass density [2] [kg/m3]
CC(C)C(=O)O [2-methylpropanoic acid]	1.3899 ± 0.0041	941.63 ± 6
CCCCO [butan-1-ol]	1.3941 ± 0.0041	807.96 ± 6
CCCC(=O)O [butanoic acid]	1.3981 ± 0.0041	952.1 ± 6
CC(C)OC(C)C [diisopropyl ether]	1.3674 ± 0.004	723.8 ± 6
CO [methanol]	1.3281 ± 0.0041	791 ± 6
O [water]	1.3324 ± 0.0041	
